Structures are written as SMILES.

This assay concerns the target T1, endothelial lipase (EL) (Homo sapiens, UniProt Q9Y5X9).
T1 construct: transformed by RAGE technology (Athersys) to overexpress endogenous EL; endogenous in cells; conditioned medium used as the enzyme source
T1 sequence (Q9Y5X9 21-500): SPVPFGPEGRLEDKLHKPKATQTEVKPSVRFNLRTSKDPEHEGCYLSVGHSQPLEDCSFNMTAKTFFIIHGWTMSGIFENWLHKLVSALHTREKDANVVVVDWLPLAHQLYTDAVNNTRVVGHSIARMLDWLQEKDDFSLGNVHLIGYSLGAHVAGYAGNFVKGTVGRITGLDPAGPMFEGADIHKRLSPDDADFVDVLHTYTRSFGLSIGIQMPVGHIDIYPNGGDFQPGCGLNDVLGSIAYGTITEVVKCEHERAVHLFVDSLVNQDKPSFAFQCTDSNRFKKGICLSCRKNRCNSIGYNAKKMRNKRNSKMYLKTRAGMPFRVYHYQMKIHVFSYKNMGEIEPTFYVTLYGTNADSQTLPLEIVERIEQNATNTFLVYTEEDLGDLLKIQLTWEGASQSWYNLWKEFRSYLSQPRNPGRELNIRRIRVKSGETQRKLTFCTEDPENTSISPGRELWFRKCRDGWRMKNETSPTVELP
As to the kind of experiment: Endothelial lipase (EL) enzymatic assay with fluorescent substrate A10070 in DMPG vesicles. The conditions noted are these: conditioned media from HT-1080 cells overexpressing endogenous EL; 20 min preincubation at 37° C.; FRET substrate A10070; read-out: HLE_EL_CRC IC50. Type of assay: biochemical. The protocol:
Endothelial lipase activity was measured using a fluorescent substrate, A10070, (Invitrogen, CA) doped into an artificial vesicle containing DMPG (Avanti Polar Lipids) as the excipient. Vesicles were prepared by combining 285 uL of 1 mM DMPG in a 1:1 mixture of MeOH and CHCl3 with 15 uL of 1 mM A10070 in a 1:1 mixture of MeOH and CHCl3. The mixture was dried under nitrogen and resuspended in 150 uL of 50 mM HEPES pH 8.0 buffer containing 100 mM NaCl and 0.2 mM EDTA. The sample was allowed to sit at rt for 15 min and then was sonicated 3×4 mins on ice with a Branson Sonicator using duty cycle 1. This preparation provides vesicles with a mole fraction of 0.05 for the FRET substrate.
The enzymatic assay was measured using white, opaque 96-well half area plates. Each well contained 60 uL of assay buffer (50 mM HEPES pH 8.0, 50 mM NaCl and 1 mM CaCl2) and 2 ul of a DMSO solution containing compound of interest. Conditioned media obtained from HT-1080 cells, which were transformed by RAGE technology (Athersys) to overexpress endogenous EL, was added and the reaction was allowed to incubate for 20 min at 37° C. with gentle agitation. The reaction was started by the addition of 20 uL of a 1:4 dilution of vesicles. The final total reaction volume was 100 uL. The reaction rates were measured on a Gemini plate reader with an excitation wavelength of 488 nm and a emission of 530 nm. Readings were taken every 20 seconds for 10 min with agitation between each reading. The slope of the linear portion of the readout was used to calculate the rate of the reaction.
Take `Cn1c(=O)c(O)c(C(=O)NCCCc2ccc(Cl)c(Cl)c2)c2ccccc21` [Example 1, N-(3-(3,4-dichlorophenyl)propyl)-3-hydroxy-1-methyl-2-oxo-1,2-dihydroquinoline-4-carboxamide]: the concentration for half-maximal inhibition (IC50) (commonly the concentration that gives 50% inhibition) turned out to be 0.01 µM.

Consider `Cn1c(=O)c(O)c(C(=O)NCCCc2ccc(Cl)cc2Cl)c2ccccc21` [Example 2, N-(3-(2,4-Dichlorophenyl)propyl)-3-hydroxy-1-methyl-2-oxo-1,2-dihydroquinoline-4-carboxamide], for which the IC50 stood at 0.013 µM.

For `Cn1c(=O)c(O)c(C(=O)NCCCc2ccc(Cl)c(Cl)c2)c2cc(Cl)ccc21` [Example 3, 6-Chloro-N-(3-(3,4-dichlorophenyl)propyl)-3-hydroxy-1-methyl-2-oxo-1,2-dihydroquinoline-4-carboxamide], the IC50 was 0.01 µM.

For the molecule `O=C(NCCCc1ccc(Cl)c(Cl)c1)c1c(O)c(=O)[nH]c2ccccc12` [Example 5, N-(3-(3,4-dichlorophenyl)propyl)-3-hydroxy-2-oxo-1,2-dihydroquinoline-4-carboxamide], the IC50 is 0.011 µM.

Take `Cn1c(=O)c(O)c(C(=O)NCCOc2ccc(Cl)cc2)c2ccccc21` [Example 26, N-(2-(4-chlorophenoxy)ethyl)-3-hydroxy-1-methyl-2-oxo-1,2-dihydroquinoline-4-carboxamide]: the IC50 is 0.091 µM.

On to `Cn1c(=O)c(O)c(C(=O)NCCCc2ccccc2Cl)c2ccccc21` [Example 27, N-(3-(2-chlorophenyl)propyl)-3-hydroxy-1-methyl-2-oxo-1,2-dihydroquinoline-4-carboxamide], for which the IC50 was determined as 0.035 µM.

Turning to `O=C(NCCCc1ccc(Cl)cc1Cl)c1c(O)c(=O)[nH]c2ccc(OC(F)(F)F)cc12` [Example 28, N-(3-(2,4-dichlorophenyl)propyl)-3-hydroxy-2-oxo-6-(trifluoromethoxy)-1,2-dihydroquinoline-4-carboxamide], the IC50 turned out to be 0.035 µM.

Take `O=C(NCc1cccc(-c2ccc(Cl)cc2)c1)c1c(O)c(=O)[nH]c2ccc(OC(F)(F)F)cc12` [Example 42, N-((4′-chlorobiphenyl-3-yl)methyl)-3-hydroxy-2-oxo-6-(trifluoromethoxy)-1,2-dihydroquinoline-4-carboxamide]: the IC50 is 0.096 µM.

In the case of `O=C(NCCCc1c(Cl)cccc1Cl)c1c(O)c(=O)[nH]c2ccc(OC(F)(F)F)cc12` [Example 43, N-(3-(2,6-dichlorophenyl)propyl)-3-hydroxy-2-oxo-6-(trifluoromethoxy)-1,2-dihydroquinoline-4-carboxamide], the IC50 is 0.07 µM.

In the case of `O=C(NCCCOc1ccccc1C(F)(F)F)c1c(O)c(=O)[nH]c2ccc(OC(F)(F)F)cc12` [Example 50, 3-hydroxy-2-oxo-6-(trifluoromethoxy)-N-(3-(2-(trifluoromethyl)phenoxy)propyl)-1,2-dihydroquinoline-4-carboxamide], the IC50 turned out to be 0.012 µM.

With `O=C(NCCCOc1c(Cl)cccc1Cl)c1c(O)c(=O)[nH]c2ccc(OC(F)(F)F)cc12` [Example 51, N-(3-(2,6-dichlorophenoxy)propyl)-3-hydroxy-2-oxo-6-(trifluoromethoxy)-1,2-dihydroquinoline-4-carboxamide], the IC50 turned out to be 0.04 µM.

Regarding `O=C(NCC1CN(S(=O)(=O)c2ccc(Cl)c(Cl)c2)C1)c1c(O)c(=O)[nH]c2ccc(OC(F)(F)F)cc12` [Example 55, N-((1-(3,4-dichlorophenylsulfonyl)azetidin-3-yl)methyl)-3-hydroxy-2-oxo-6-(trifluoromethoxy)-1,2-dihydroquinoline-4-carboxamide], the IC50 came to 0.025 µM.

Consider `C[C@@H](NC(=O)c1c(O)c(=O)n(C)c2ccccc12)c1cccc(-c2ccccc2)c1` [Example 64, (R)-N-(1-(biphenyl-3-yl)ethyl)-3-hydroxy-1-methyl-2-oxo-1,2-dihydroquinoline-4-carboxamide], for which the IC50 was 0.064 µM.

On to `Cn1c(=O)c(O)c(C(=O)NCc2ccc(OC(F)(F)F)cc2)c2ccccc21` [Example 85, 3-hydroxy-1-methyl-2-oxo-N-(4-(trifluoromethoxy)benzyl)-1,2-dihydroquinoline-4-carboxamide], for which the IC50 was found to be 0.043 µM.

Take `Cn1c(=O)c(O)c(C(=O)NCc2cccc(OC(F)(F)F)c2)c2ccccc21` [Example 86, 3-hydroxy-1-methyl-2-oxo-N-(3-(trifluoromethoxy)benzyl)-1,2-dihydroquinoline-4-carboxamide]: the IC50 turned out to be 0.037 µM.

Regarding `Cn1c(=O)c(O)c(C(=O)NCc2csc(-c3ccccc3)n2)c2ccccc21` [Example 90, 3-hydroxy-1-methyl-2-oxo-N-((2-phenylthiazol-4-yl)methyl)-1,2-dihydroquinoline-4-carboxamide], the IC50 amounted to 0.083 µM.

For `Cn1c(=O)c(O)c(C(=O)NCCc2ccc(C(F)(F)F)cc2)c2ccccc21` [Example 92, 3-hydroxy-1-methyl-2-oxo-N-(4-(trifluoromethyl)phenethyl)-1,2-dihydroquinoline-4-carboxamide], the IC50 was 0.084 µM.

Consider `COC[C@H](Cc1ccccc1)NC(=O)c1c(O)c(=O)n(C)c2ccccc12` [Example 96, (S)-3-hydroxy-N-(1-methoxy-3-phenylpropan-2-yl)-1-methyl-2-oxo-1,2-dihydroquinoline-4-carboxamide], for which the IC50 was 8.53 µM.

With `Cn1c(=O)c(O)c(C(=O)NCCCN2CCCC2=O)c2ccccc21` [Example 103, 3-hydroxy-1-methyl-2-oxo-N-(3-(2-oxopyrrolidin-1-yl)propyl)-1,2-dihydroquinoline-4-carboxamide], the IC50 was determined as 9.36 µM.

Turning to `Cn1c(=O)c(O)c(C(=O)NCc2ccc(C(F)(F)F)cc2)c2ccccc21` [Example 105, 3-hydroxy-1-methyl-2-oxo-N-(4-(trifluoromethyl)benzyl)-1,2-dihydroquinoline-4-carboxamide], the IC50 worked out at 0.1 µM.

Consider `Cn1c(=O)c(O)c(C(=O)NCc2nc3ccccc3s2)c2ccccc21` [Example 107, N-(benzo[d]thiazol-2-ylmethyl)-3-hydroxy-1-methyl-2-oxo-1,2-dihydroquinoline-4-carboxamide], for which the IC50 was determined as 11.1 µM.

`Cn1c(=O)c(O)c(C(=O)NCc2ccccc2N2CCCC2)c2ccccc21` [Example 109, 3-hydroxy-1-methyl-2-oxo-N-(2-(pyrrolidin-1-yl)benzyl)-1,2-dihydroquinoline-4-carboxamide]: the IC50 came out at 2.91 µM.

With `Cn1c(=O)c(O)c(C(=O)NCCCOc2ccc(-c3ccccc3)cc2)c2ccccc21` [Example 133, N-(3-(biphenyl-4-yloxy)propyl)-3-hydroxy-1-methyl-2-oxo-1,2-dihydroquinoline-4-carboxamide], the IC50 came to 0.01 µM.

In the case of `Cn1c(=O)c(O)c(C(=O)NCc2ccccc2N2CCC(CO)CC2)c2ccccc21` [Example 141, 3-hydroxy-N-(2-(4-(hydroxymethyl)piperidin-1-yl)benzyl)-1-methyl-2-oxo-1,2-dihydroquinoline-4-carboxamide], the IC50 came to 1.7 µM.

In the case of `COc1ccccc1OCCCNC(=O)c1c(O)c(=O)n(C)c2ccccc12` [Example 147, 3-hydroxy-N-(3-(2-methoxyphenoxy)propyl)-1-methyl-2-oxo-1,2-dihydroquinoline-4-carboxamide], the IC50 turned out to be 0.049 µM.

In the case of `Cn1c(=O)c(O)c(C(=O)NCCc2ccc(-c3ccc(F)cc3)cc2)c2ccccc21` [Example 151, N-(2-(4′-fluorobiphenyl-4-yl)ethyl)-3-hydroxy-1-methyl-2-oxo-1,2-dihydroquinoline-4-carboxamide], the IC50 turned out to be 0.075 µM.

For the molecule `Cn1c(=O)c(O)c(C(=O)NC(Cc2ccccc2)c2ccccc2)c2ccccc21` (stereo not shown) [Example 155, N-(1,2-diphenylethyl)-3-hydroxy-1-methyl-2-oxo-1,2-dihydroquinoline-4-carboxamide], the IC50 stood at 3.12 µM.

Take `Cn1c(=O)c(O)c(C(=O)NCc2cccc(-n3cccc3)c2)c2ccccc21` [Example 172, N-(3-(1H-pyrrol-1-yl)benzyl)-3-hydroxy-1-methyl-2-oxo-1,2-dihydroquinoline-4-carboxamide]: the IC50 was determined as 0.01 µM.

These data come from patent publication US8946430B2, “Quinolinone carboxamide inhibitors of endothelial lipase” (Bristol-Myers Squibb Company, priority 2011, dated 2015).
